Laboratory results from patent publication US6737383B1, “Herbicidal oxadiazolidines” (priority 1999, dated 2004).

Legend:
bermuda-grass = assay: Test D bermudagrass; format: in vivo, Cynodon dactylon; settings: Preemergence, 0 to 100 scale
Procedure, shortened: (§1)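 Each weed species is planted in its own pot or compartment; preemergence doses go on the sandy loam surface within a day. The formulation is a surfactant-containing, non-phytotoxic solvent blend. Ratings come from visual comparison with untreated controls 14 to 21 days later, where 100 means complete control.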

winter barley = assay: Test E winter barley; format: in vivo, Hordeum vulgare; settings: Preemergence
winter wheat [1] = assay: Test E winter wheat; format: in vivo, Triticum aestivum; settings: Preemergence
green foxtail [2] = assay: Test E green foxtail; format: in vivo, Setaria viridis; settings: Preemergence
Green foxtail [3] = assay: Test D green foxtail; format: in vivo
Procedure, shortened: as §1

purple nutsedge = assay: Test B pre/postemergence purple nutsedge; format: in vivo, Cyperus rotundus
Procedure, shortened: (§2)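 Test chemicals in a non-phytotoxic solvent mixture with surfactant were sprayed preemergence onto planted seeds and postemergence onto plants 2 to 18 cm tall (1- to 4-leaf stage). After twelve to sixteen days in a greenhouse, injury was visually rated against untreated controls from 0 (no effect) to 10 (complete control).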

winter wheat [4] = assay: Test E winter wheat; format: in vivo, Triticum aestivum; settings: Postemergence
Procedure, shortened: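 For postemergence, plants at the 1- to 4-leaf stage, in a 60:40 mix of sandy loam and potting mix, treated with compound formulated in a surfactant-containing non-phytotoxic solvent. Visual assessment versus untreated controls followed roughly 21–28 days in the greenhouse.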

blackgrass [5] = assay: Test E blackgrass; format: in vivo, Alopecurus myosuroides; settings: Preemergence
giant foxtail = assay: Test B pre/postemergence giant foxtail; format: in vivo, Setaria faberii
Procedure, shortened: as §2

wild oat = assay: Test E wild oat; format: in vivo, Avena fatua; settings: Preemergence
dallisgrass = assay: Test D dallisgrass; format: in vivo, Paspalum dilatatum; settings: Preemergence, 0 to 100 scale
Procedure, shortened: as §1

Green foxtail [6] = assay: Test D green foxtail; format: in vivo; settings: Preemergence, 0 to 100 scale
Procedure, shortened: as §1

Italian ryegrass = assay: Test E Italian ryegrass; format: in vivo, Lolium multiflorum; settings: Preemergence
wheat = assay: Test B pre/postemergence wheat; format: in vivo, Triticum aestivum; settings: for Plant response rating, Wheat: Rate 250 g/ha
Procedure, shortened: as §2

blackgrass [7] = assay: Test B pre/postemergence blackgrass; format: in vivo, Alopecurus myosuroides
Procedure, shortened: as §2

[8] = Rate 16 g/ha, 0 no injury, 100 complete control
[9] = Rate 32 g/ha, 0 no injury, 100 complete control
[10] = Rate 64 g/ha, 0 no injury, 100 complete control
[11] = Rate 62 g/ha, 0 to 100 scale, 0 no effect, 100 complete control
[12] = Rate 125 g/ha, 0 to 100 scale (0 no effect, 100 complete control)
[13] = Rate 64 g/ha, Preemergence; 0 to 100 scale, 0 no injury, 100 complete control
[14] = Postemergence, Rate 125 g/ha, scale of 0 to 10 where 0 is no effect and 10 is complete control
[15] = Postemergence, Rate 250 g/ha, scale 0 to 10, 0 no effect, 10 complete control
[16] = Preemergence, Rate 62 g/ha, scale 0 to 10 (0 no effect, 10 complete control)
[17] = Preemergence, Rate 125 g/ha, scale 0 to 10 (0 no effect, 10 complete control)
[18] = Preemergence, Rate 250 g/ha, scale of 0 to 10 where 0 is no effect and 10 is complete control
[19] = Preemergence, Rate 500 g/ha, scale 0 to 10 (0 no effect, 10 complete control)
[20] = Rate 62 g/ha, Postemergence, scale of 0 to 10 where 0 is no effect and 10 is complete control
[21] = Rate 500 g/ha, Postemergence, scale 0 to 10, 0 no effect, 10 complete control

CC(C)N(C(=O)n1oc(=O)n(C2CCCCC2)c1=O)c1ccccc1 [Compound 112]
Plant response rating, Bermudagrass (bermuda-grass; [8]): 60 | Plant response rating, Bermudagrass (bermuda-grass; [9]): 75 | Plant response rating, Bermudagrass (bermuda-grass; [10]): 85 | Plant response rating, Bermudagrass (bermuda-grass; Rate 250 g/ha): 98 | Plant response rating, Bermudagrass (bermuda-grass; Rate 500 g/ha): 100 | Plant response rating, Barley (winter) (winter barley; [11]): 0 | Plant response rating, Barley (winter) (winter barley; [12]): 10 | Plant response rating, Barley (winter) (winter barley; Rate 250 g/ha, 0 to 100 scale): 10 | Plant response rating, Wheat (winter) (winter wheat [1]; [11]): 0 | Plant response rating, Wheat (winter) (winter wheat [1]; [12]): 0 | Plant response rating, Wheat (winter) (winter wheat [1]; Rate 250 g/ha, 0 to 100 scale): 0 | Plant response rating, Green foxtail (green foxtail [2]; [11]): 10 | Plant response rating, Green foxtail (green foxtail [2]; [12]): 20 | Plant response rating, Green foxtail (green foxtail [2]; Rate 250 g/ha, 0 to 100 scale): 50 | Plant response rating, Green foxtail (Green foxtail [3]; Preemergence; Rate 16 g/ha; 0 to 100 scale, 0 no injury, 100 complete control): 0 | Plant response rating, Green foxtail (Green foxtail [3]; Preemergence; Rate 32 g/ha; 0 to 100 scale, 0 no injury, 100 complete control): 0 | Plant response rating, Green foxtail (Green foxtail [3]; Rate 16 g/ha; Preemergence; 0 to 100 scale, 0 no injury, 100 complete control): 0 | Plant response rating, Green foxtail (Green foxtail [3]; Rate 32 g/ha; Preemergence; 0 to 100 scale, 0 no injury, 100 complete control): 98 | Green foxtail plant response rating (Green foxtail [3]; [13]): 85 | Plant response rating, Green foxtail (Green foxtail [3]; [13]): 85 | Plant response rating, Green foxtail (Green foxtail [3]; Rate 250 g/ha; Preemergence; 0 to 100 scale): 98 | Plant response rating, Green foxtail (Green foxtail [3]; Rate 500 g/ha, Preemergence; 0 to 100 scale): 0 | Nutsedge plant response rating (purple nutsedge; [14]): 0 | Nutsedge plant response rating (purple nutsedge; [15]): 0 | Nutsedge plant response rating (purple nutsedge; [16]): 0 | Plant response rating, Nutsedge (purple nutsedge; [17]): 0 | Plant response rating, Nutsedge (purple nutsedge; [18]): 0 | Nutsedge plant response rating (purple nutsedge; [19]): 0 | Nutsedge plant response rating (purple nutsedge; [20]): 0 | Nutsedge plant response rating (purple nutsedge; [21]): 0 | Plant response rating, Wheat (winter) (winter wheat [4]; Rate 62 g/ha, 0 to 100 scale): 0 | Plant response rating, Wheat (winter) (winter wheat [4]; Rate 125 g/ha, 0 to 100 scale): 0 | Plant response rating, Wheat (winter) (winter wheat [4]; Rate 250 g/ha, 0 to 100 scale (0 no effect, 100 complete control)): 10 | Plant response rating, Blackgrass (blackgrass [5]; [11]): 10 | Plant response rating, Blackgrass (blackgrass [5]; [12]): 20 | Plant response rating, Blackgrass (blackgrass [5]; Rate 250 g/ha, 0 to 100 scale): 50 | Giant foxtail plant response rating (giant foxtail; [14]): 7 | Giant foxtail plant response rating (giant foxtail; [15]): 7 | Giant foxtail plant response rating (giant foxtail; [16]): 8 | Plant response rating, Giant foxtail (giant foxtail; [17]): 10 | Plant response rating, Giant foxtail (giant foxtail; [18]): 10 | Giant foxtail plant response rating (giant foxtail; [19]): 10 | Giant foxtail plant response rating (giant foxtail; [20]): 2 | Giant foxtail plant response rating (giant foxtail; [21]): 8 | Plant response rating, Wild oat (wild oat; [11]): 0 | Plant response rating, Wild oat (wild oat; [12]): 0 | Plant response rating, Dallisgrass (dallisgrass; [8]): 30 | Plant response rating, Dallisgrass (dallisgrass; [9]): 65 | Plant response rating, Dallisgrass (dallisgrass; [10]): 70 | Plant response rating, Dallisgrass (dallisgrass; Rate 250 g/ha): 100 | Plant response rating, Dallisgrass (dallisgrass; Rate 500 g/ha): 100 | Plant response rating, Green foxtail (Green foxtail [6]; Rate 250 g/ha): 98 | Plant response rating, Green foxtail (Green foxtail [6]; Rate 500 g/ha): 0 | Plant response rating, I. Ryegrass (Italian ryegrass; [11]): 0 | Plant response rating, I. Ryegrass (Italian ryegrass; [12]): 0 | Plant response rating, I. Ryegrass (Italian ryegrass; Rate 250 g/ha, 0 to 100 scale): 20 | Wheat plant response rating (wheat; [14]): 0 | Wheat plant response rating (wheat; [16]): 0 | Wheat plant response rating (0 to 10 scale) (wheat; Preemergence, Rate 125 g/ha, 0 is no effect, 10 is complete control): 0 | Plant response rating, Wheat (wheat; Preemergence, scale of 0 to 10 where 0 is no effect and 10 is complete control): 0 | Wheat plant response rating (wheat; [19]): 0 | Wheat plant response rating (wheat; [20]): 0 | Plant response rating, Wheat (wheat; Postemergence, scale 0 to 10, 0 is no effect, 10 is complete control): 0 | Wheat plant response rating (wheat; [21]): 0 | Blackgrass plant response rating (blackgrass [7]; [14]): 4 | Blackgrass plant response rating (blackgrass [7]; [15]): 5 | Blackgrass plant response rating (blackgrass [7]; [16]): 0 | Plant response rating, Blackgrass (blackgrass [7]; [17]): 0 | Plant response rating, Blackgrass (blackgrass [7]; [18]): 2 | Blackgrass plant response rating (blackgrass [7]; [19]): 5 | Blackgrass plant response rating (blackgrass [7]; [20]): 0 | Blackgrass plant response rating (blackgrass [7]; [21]): 7
